According to US12528795B2, “Crystal form of multi-substituted benzene ring compound maleate, and preparation method therefor and use thereof” (EVOPOINT BIOSCIENCES CO., LTD., priority 2020, dated 2026):
Values after ≈ are worked out from the molar mass of the structure shown. “Also recorded” adds a separate entry of the source. Where two headings read alike, the source gives them in different places. Each block holds one compound with its values, some of them ahead of it.

Legend:
Assay type in all cases: physicochemical
[1] = Hygroscopicity by dynamic vapor sorption (DVS); details: for Crystal form after DVS test: XRPD after DVS 0% RH-95% RH-0% RH, 25° C.
Protocol: Dynamic vapor sorption (DVS) curves were acquired on a DVS Intrinsic in Surface Measurement Systems (SMS). The relative humidity at 25° C. was corrected with the deliquescence points of LiCl, Mg(NO3)2 and KCl.
After the mass change rate over time was less than 0.002%, the moisture absorption characteristics of the samples when the humidity changed from 0% RH to 95% RH were tested, as well as the moisture desorption characteristics of the samples when the humidity changed from 0% RH to 95% RH to 0% RH were tested, and the humidity change step was 10% RH. The value of the mass change rate dm/dt less than 0.002% was considered as balance equilibration, the mass change rate within 10 min less than 0.002%/min was considered as the equilibration standard during the testing process, and the maximum equilibration time was 3 h. The isothermal moisture sorption/desorption characteristics under this test condition were determined and XRPD test was performed on the samples after the DVS test.

[2] = Dynamic solubility in SGF, FaSSIF, FeSSIF and water at 37° C.; details: thermodynamic from solid, sampling at 1, 2, 4 and 24 h, time point of the value not stated
Protocol: (§1) The purity and solubility of the samples in the test were tested by Waters ultra performance liquid chromatograph, and the conditions are shown in Table 6:
In the test, 45 mg of the solid and 4.5 mL of the vehicle were mixed in a 5 mL centrifuge tube, then the centrifuge tube was sealed and fixed on a rotating disk at a rotating speed of 40 rpm, and the rotating disk was placed in a 37° C. incubator. Sampling was performed at four time points of 1, 2, 4 and 24 h on equilibration, followed by filtration. The filtrate was separated at each sampling time point to test the concentration and pH, and the solid was tested for crystal form.

[3] = Suspension competition experiments on crystal form A and hydrate crystal forms C and D of maleate at different water activities (XRPD); details: for Result (crystal form by XRPD after suspension competition): H2O
Protocol: The mixtures were stirred at room temperature for 24 h, and then filtered to obtain saturated solutions. About 10 mg of a crystal form A/C/D of maleate was added to each saturated solution, the mixtures were suspended and stirred at room temperature for 2 days, and then subjected to the XRPD test. Two 5-mL vials were taken, water (2 mL) was added to each vial, and excessive crystal form B of maleate was added. The mixtures were stirred at 50° C./80° C. for 20 h/2 h, and then filtered to obtain saturated solutions. About 10 mg of the crystal form A/C/D of maleate was added to each saturated solution, and the mixtures were suspended and stirred at 50° C./80° C. for 1 day/3.5 h, and then subjected to the XRPD test.

[4] = as above; details: room temperature, 3.5 h
[5] = Suspension competition experiments on anhydrous crystal forms A and B of maleate (XRPD); details: for Results (crystal form by XRPD after suspension competition): 3 days
Protocol: Suspention competition experiments on anhydrous crystal forms A and B of maleate were conducted as follows: Four 5-mL vials were taken, IPA (2 mL) and IPAc (2 mL) were added to each vial, and excessive crystal form B of maleate was added. The mixtures were stirred at room temperature/50° C. for 24 h, and then filtered to obtain saturated solutions of the maleate in IPA and IPAc. About 10 mg of a crystal form A/B of maleate was added to each saturated solution, the mixtures were suspended and stirred at room temperature/50° C. for 3 days, and then subjected to the XRPD test.

[6] = Crystal form transformation on heating, cooling or drying
Protocol: The obtained sample was determined to be a crystal form E of maleate of the multi-substituted benzene ring compound of formula II by X-ray powder diffraction.

[7] = Physical and chemical stability in open vials (HPLC purity, XRPD); details: for Crystal form change: XRPD; for Stability sample purity (area percentage): initial purity 98.86
Protocol: as §1
The solid samples placed under different conditions were tested for purity by HPLC to assess the chemical stability and for crystal form by XRPD to assess the physical stability.

[8] = Fluidity (angle of repose of a single API); details: D90 controlled at 200 μm
[9] = FaSSIF, FaSSIF, read-out: Dynamic solubility in FaSSIF
[10] = FeSSIF, FeSSIF, read-out: Dynamic solubility in FeSSIF
[11] = SGF, simulated gastric fluid, SGF, read-out: Dynamic solubility in SGF
[12] = water, water, read-out: Dynamic solubility in water
[13] = open vial, 25° C./60% RH, one week
[14] = open vial, 40° C./75% RH, one week

Structure (SMILES): Br.CCN(c1cc(O[C@H]2C[C@H](N3CCCCC3)C2)cc(C(=O)NCc2c(C)cc(C)[nH]c2=O)c1C)C1CCOCC1 [Crystal form A of hydrobromide]
DVS vapor sorption (25° C./80% RH, %) [1]: 5.2%
solubility [2, 9]: 1390 µg/mL
solubility [2, 10]: 5330 µg/mL
solubility [2, 12]: 4260 µg/mL

Structure (SMILES): CCN(c1cc(O[C@H]2C[C@H](N3CCCCC3)C2)cc(C(=O)NCc2c(C)cc(C)[nH]c2=O)c1C)C1CCOCC1.O=C(O)/C=C\C(=O)O [Crystal form A/B of maleate]
Results (crystal form by XRPD after suspension competition) ([5]; IPA, 50° C.): Crystal form A of maleate
Results (crystal form by XRPD after suspension competition) ([5]; IPA, room temperature): Crystal form A of maleate
Results (crystal form by XRPD after suspension competition) ([5]; IPAc, 50° C.): Crystal form A of maleate
Results (crystal form by XRPD after suspension competition) ([5]; IPAc, room temperature): Crystal form A of maleate

Structure (SMILES): CCN(c1cc(O[C@H]2C[C@H](N3CCCCC3)C2)cc(C(=O)NCc2c(C)cc(C)[nH]c2=O)c1C)C1CCOCC1.O=C(O)/C=C\C(=O)O [Crystal form E of maleate]
Crystal form transformation after cooling to room temperature ([6]; form obtained only at high temperature, then cooled to room temperature): retransformed into the crystal form A of maleate

Structure (SMILES): CCN(c1cc(O[C@H]2C[C@H](N3CCCCC3)C2)cc(C(=O)NCc2c(C)cc(C)[nH]c2=O)c1C)C1CCOCC1.O=C(O)/C=C\C(=O)O [Crystal form A of maleate]
Relative stability of crystal forms A and B of maleate ([5]; room temperature/50° C.): more stable than the crystal form B
Stability ranking among the 5 crystal forms of maleate ([3]; conclusion from the examples and suspension competition experiments): most stable among the 5 crystal forms of maleate
Initial purity (area percentage) ([7]; before storage): 98.86 area percentage
Crystal form change [7, 13]: Unchanged
Stability sample purity (area percentage) [7, 13]: 98.79 area percentage
Crystal form change [7, 14]: Unchanged
Stability sample purity (area percentage) [7, 14]: 98.79 area percentage
Physical and chemical stability under three test conditions ([7]; open vial, 60° C. one day, 25° C./60% RH and 40° C./75% RH one week): did not undergo crystal form transformation and chemical purity decrease; also recorded: no crystal form transformation and chemical purity decrease
Crystal form change ([7]; open vial, 60° C., 24 h): Unchanged
Stability sample purity (area percentage) ([7]; open vial, 60° C., 24 h): 98.79 area percentage
DVS vapor sorption (25° C./80% RH, %) [1]: 0.4%
Crystal form after DVS test [1]: Unchanged
Crystal form after DVS test ([1]; listed as crystal form A of maleate): crystal form transformation did not occur
solubility [2, 9]: 4150 µg/mL
solubility [2, 10]: > 7350 µg/mL
solubility [2, 11]: ≥ 6000 µg/mL
solubility [2, 12]: 6990 µg/mL
Angle of repose of a single API [8]: about 40 °
Angle of repose of a single API ([8]; as printed in b231): about 400

Structure (SMILES): CCN(c1cc(O[C@H]2C[C@H](N3CCCCC3)C2)cc(C(=O)NCc2c(C)cc(C)[nH]c2=O)c1C)C1CCOCC1.O=C(O)CCC(=O)O [Crystal form A of succinate]
DVS vapor sorption (25° C./80% RH, %) [1]: 2.1%
solubility [2, 9]: 5390 µg/mL
solubility [2, 10]: > 7350 µg/mL
solubility [2, 11]: ≥ 6000 µg/mL
solubility [2, 12]: > 8440 µg/mL

Further lines, results first:

DVS vapor sorption (25° C./80% RH, %) [1]: 1.3%
solubility [2, 9]: 420 µg/mL (≈ 763 µM)
solubility [2, 10]: > 7350 µg/mL
solubility [2, 11]: 6980 µg/mL (≈ 12700 µM)
solubility [2, 12]: 16 µg/mL (≈ 29.1 µM)
Structure (SMILES): CCN(c1cc(O[C@H]2C[C@H](N3CCCCC3)C2)cc(C(=O)NCc2c(C)cc(C)[nH]c2=O)c1C)C1CCOCC1 [Free crystal form D]

Result (crystal form by XRPD after suspension competition) ([3]; 50° C., 1 day): Crystal form C of maleate
Result (crystal form by XRPD after suspension competition) ([3]; 80° C., 3.5 h): Crystal form C of maleate
Result (crystal form by XRPD after suspension competition) ([4]; EtOH): Crystal form A of maleate
Result (crystal form by XRPD after suspension competition) ([4]; EtOH/H2O (70:30, aw = 0.8)): Crystal form C of maleate
Result (crystal form by XRPD after suspension competition) ([4]; EtOH/H2O (82:18, aw = 0.6)): Crystal form C of maleate
Result (crystal form by XRPD after suspension competition) ([4]; EtOH/H2O (91:9, aw = 0.4)): Crystal form C of maleate
Result (crystal form by XRPD after suspension competition) ([4]; EtOH/H2O (96:4, aw = 0.2)): Crystal form A of maleate
Result (crystal form by XRPD after suspension competition) ([4]; H2O): Crystal form C of maleate
Structure (SMILES): CCN(c1cc(O[C@H]2C[C@H](N3CCCCC3)C2)cc(C(=O)NCc2c(C)cc(C)[nH]c2=O)c1C)C1CCOCC1.O=C(O)/C=C\C(=O)O [Crystal form A/C/D of maleate]

Crystal form transformation by suspending and stirring ([3]; ethanol solution with a water activity of 0.2 or absolute ethanol, room temperature): transformed into the crystal form A
Crystal form transformation after drying ([6]; dried at 170° C.): transformed into the crystal form A
Structure (SMILES): CCN(c1cc(O[C@H]2C[C@H](N3CCCCC3)C2)cc(C(=O)NCc2c(C)cc(C)[nH]c2=O)c1C)C1CCOCC1.O=C(O)/C=C\C(=O)O [Crystal form C of maleate]
